Here are results for one compound from patent publication US6027747A, “Process for the production of dry pharmaceutical forms and the thus obtained pharmaceutical compositions” (priority 1998, dated 2000).

“And” between values parts separate entries of the source, which are not always exact repeats. Identical values can stand only once.

A short description of the data set: Kinetics of dissolution of fenofibrate (UV 278 nm). It counts as physicochemical. The note with it: for kinetics of dissolution of fenofibrate: 5 mg/l, one value per dish, Dish 1 to 6 in order. The method, then: The system of measurements used for the galenical control of the solid dispersions was made of two members: an apparatus of dissolution DISSOLUTEST DT 6 from ERWEKA [Euraf 55 rue Deschanel 92400 Courbevoie (France)] and a peristaltic pump 505 SR WATSON-MARLOW from Prolabo. Each test of dissolution was performed in one liter of degassed distilled water at 37° C. and at a pH near neutral. A sample of 4 mg of estradiol (i.e. 25 mg co-precipitate) was introduced in each of the six reactors at time t=0 and the speed of stirring of the paddles was 100 rounds/min. The dosages by UV (absorption at 278 nm) were performed continuously and in a closed circuit of a multi-channel peristaltic pump, connecting the beakers of the Dissolutest to the dishes of the spectrophometer. The latter was linked to a recorder and to a printing machine to permit the measurement at steady intervals of every 3 minutes of the variations of the optical density, themselves being proportional to the variations of the concentration of the active ingredient in the dissolution medium.
This was identical to that used for the study of the kinetics of dissolution for the co-precipitates of estradiol.
Therefore, it had been decided to prepare a calibrating range at 5 mg/l as for progesterone and to determine the kinetics of dissolution while introducing an equivalent amount of co-precipitate.

For the compound `CC(C)OC(=O)C(C)(C)Oc1ccc(C(=O)c2ccc(Cl)cc2)cc1` [Fenofibrate], the “kinetics of dissolution of fenofibrate” value was 0 (0 min); 95.26 and 98.94 and 93.68 and 94.21 and 93.15 (3 min); 92.1 and 95.78 and 91.05 and 90.52 (6 min); 87.89 and 91.05 and 86.31 and 85.78 (9 min); 83.68 and 86.31 and 82.1 and 83.15 and 80.52 (12 min); 80.52 and 83.15 and 78.42 and 80 and 76.84 (15 min). Also, the “kinetics of dissolution of fenofibrate” value reads like this: (18 min) 77.89 and 77.36 and 80 and 75.26 and 74.21; (21 min) 74.73 and 76.84 and 71.57 and 73.68 and 71.05; (24 min) 72.1 and 73.68 and 68.94 and 71.05 and 68.42; (27 min) 70 and 71.57 and 66.84 and 68.94 and 66.31; (30 min) 68.42 and 67.89 and 69.47 and 64.73 and 67.36. The “recrystallization in the course of the dissolution test” value (in words) is “a recrystallization of fenofibrate had been observed”.
